The text below walks through data of patent US20170234889A1, “hGH Determination for Use to Guide Prevention of a Major Adverse Cardiac Event or a Cardiovascular Disease in a Subject” (Sphingotec GmbH, priority 2014, published 2017).

What all share (format): in vivo, human
In experiment [1] the test system is patients with acute myocardial infarction. As to the kind of experiment: AMI cohort: Cox regression and Kaplan-Meier analysis for MACE at 2 years post-AMI. How it is done: We studied 953 STEMI and NSTEMI patients admitted to University Hospitals of Leicester NHS trust between August 2004 and April 2007. This observational cohort study complied with the Declaration of Helsinki and was approved by the local ethics committee; written informed consent was obtained from patients. […] Patients with known malignancy, renal replacement therapy or surgery in the previous month were excluded. Estimated glomerular filtration rate (eGFR) was calculated from the simplified Modification of Diet in Renal Disease formula (Smilde T D, van Veldhuisen D J, Navis G, Voors A A, Hillege H L. Drawbacks and prognostic value of formulas estimating renal function in patients with chronic heart failure and systolic dysfunction. Circulation 2006; 114:1572-80). All patients received standard medical treatment and revascularisation was at the discretion of the attending physician.
Plasma samples: Blood samples (anticoagulated with EDTA and aprotinin) were drawn after 15 minutes bed rest, immediately after diagnosis and within 36 h of symptom onset. Plasma was stored at −80° C. until assayed in a single batch for blinded determination of plasma hGH.
During follow-up over 2 years, there were 281 MACE, the primary composite endpoint (comprising 117 deaths, 71 HF hospitalisations and 93 re-AMIs). […]

Experiment [2] deals with subjects with plaque in the right carotid artery but no symptoms of carotid artery disease. As to the kind of experiment: BCAPS: fasting plasma hs-GH under treatment. The settings on record: for Growth Hormone - females, geometric mean / Growth Hormone - males, geometric mean: 12 months of treatment, fasting plasma. From the text: The β-Blocker Cholesterol-Lowering Asymptomatic Plaque Study (BCAPS) was a randomized, double blind, placebo-controlled, single-center clinical trial that took place between 1994 and 1999. A detailed description of BCAPS can be found in the original paper (Hedblad et al. 2001. Circulation 103: 1721-1726), following here is a brief summary. The original study population consisted of 361 men and 432 women (total n=793) 49 to 70 years of age recruited from MDC-CC. Subjects included in BCAPS had plaque in the right carotid artery but no symptoms of carotid artery disease. Exclusion criteria were: myocardial infarction, angina pectoris or stroke within the previous 3 months; previous surgery in the right carotid artery; regular use of β-blockers or statins; blood pressure >160 (systolic) or >95 (diastolic) mm Hg; total cholesterol >8.0 mmol/l; hyperglycemia suspected to require insulin treatment; and conditions that in the view of the investigator made the participant unsuitable for the trial. The study consisted of 4 different treatment groups and the participants were randomized to 1 of the following: placebo/placebo, metoprolol CR/XL (25 mg once daily)/placebo, fluvastatin (40 mg once daily)/placebo or metoprolol CR/XL (25 mg once daily)/fluvastatin (40 mg once daily). The treatment period was 36-months. Fasting blood samples were drawn at baseline and at 12, 24 and 36 months. HDL-C, total cholesterol and TG were measured according to standard procedures at the Department of Clinical Chemistry, University Hospital of Malmö. LDL-C levels were calculated according to the Friedewald formula. GH levels were measured in stored fasting plasma samples, which were frozen immediately to −80° C. at the different examinations. A number of the samples stored in the freezer were missing or had insufficient plasma for the analysis of hs-GH. Subjects in which either the baseline-value of GH or the 12-month value of GH was missing were excluded from further analysis. After this adjustment the study consisted of 472 individuals. All samples were measured using the hs-hGH immunoassay as described above. In the analyses where treatment groups are compared, the groups are either the 4 randomization groups or they are divided in to 2 groups which are fluvastatin vs non-fluvastatin (i.e placebo) or metoprolol vs non-metoprolol. Since fasting hs-GH is known to differ between men and women all models were performed separate for men and women as well as combined. All models were adjusted for age, sex (if not already gender separated) and the natural logarithm of the fasting level of hs-GH at baseline. To investigate if fasting hs-GH was affected by treatment with fluvastatin or metoprolol we performed multiple regression analysis with ΔGH (baseline value subtracted from 12 month value) as the dependent variable and the treatment groups as independent variables.

The test system is the same in experiment [3]. In words: BCAPS: LDL-C under treatment. To be noted: 12 months of treatment. From the text: The β-Blocker Cholesterol-Lowering Asymptomatic Plaque Study (BCAPS) was a randomized, double blind, placebo-controlled, single-center clinical trial that took place between 1994 and 1999. A detailed description of BCAPS can be found in the original paper (Hedblad et al. 2001. Circulation 103: 1721-1726), following here is a brief summary. The original study population consisted of 361 men and 432 women (total n=793) 49 to 70 years of age recruited from MDC-CC. Subjects included in BCAPS had plaque in the right carotid artery but no symptoms of carotid artery disease. […] HDL-C, total cholesterol and TG were measured according to standard procedures at the Department of Clinical Chemistry, University Hospital of Malmö. LDL-C levels were calculated according to the Friedewald formula. GH levels were measured in stored fasting plasma samples, which were frozen immediately to −80° C. at the different examinations. […] All samples were measured using the hs-hGH immunoassay as described above.

Experiment [4] shares this test system. As to the kind of experiment: BCAPS: carotid ultrasound intima media thickness (IMT). To be noted: 36 months; for IMTbulb, median: maximum IMT at the carotid bifurcation; for IMTcca, median: mean IMT in the common carotid artery. From the text: The β-Blocker Cholesterol-Lowering Asymptomatic Plaque Study (BCAPS) was a randomized, double blind, placebo-controlled, single-center clinical trial that took place between 1994 and 1999. A detailed description of BCAPS can be found in the original paper (Hedblad et al. 2001. Circulation 103: 1721-1726), following here is a brief summary. The original study population consisted of 361 men and 432 women (total n=793) 49 to 70 years of age recruited from MDC-CC. Subjects included in BCAPS had plaque in the right carotid artery but no symptoms of carotid artery disease. Exclusion criteria were: myocardial infarction, angina pectoris or stroke within the previous 3 months; previous surgery in the right carotid artery; regular use of β-blockers or statins; blood pressure >160 (systolic) or >95 (diastolic) mm Hg; total cholesterol >8.0 mmol/l; hyperglycemia suspected to require insulin treatment; and conditions that in the view of the investigator made the participant unsuitable for the trial. The study consisted of 4 different treatment groups and the participants were randomized to 1 of the following: placebo/placebo, metoprolol CR/XL (25 mg once daily)/placebo, fluvastatin (40 mg once daily)/placebo or metoprolol CR/XL (25 mg once daily)/fluvastatin (40 mg once daily). Carotid ultrasound was performed at baseline, 18 and 36 months (Hedblad et al. 2001. Circulation 103: 1721-1726). In brief, a predefined extent of the right carotid bifurcation was scanned for presence of plaques and the maximum IMT at the bifurcation (IMTbulb) and the mean IMT in the common carotid artery ([…]) was measured.

Setting [5] is: FEMALE, all receiving the drug vs individuals not receiving it.
Where [6] appears, read: FEMALE, model All groups, each compared against placebo.
The mark [7] stands for this setting: MALE, all receiving the drug vs individuals not receiving it.
Setting [8] is: MALE, model All groups, each compared against placebo.
[9] abbreviates: gender ALL, all receiving the drug vs individuals not receiving it.
Where [10] appears, read: gender ALL, model All groups, each compared against placebo.

As for `CC(=O)Oc1ccccc1C(=O)O` [Aspirin], the “Univariable HR (95% CI) for MACE” value in experiment [1] was 0.54 (0.41-0.72).

As to `CC(C)n1c(/C=C/C(O)CC(O)CC(=O)O)c(-c2ccc(F)cc2)c2ccccc21` (centres unmarked) [Fluvastatin], the “Growth Hormone - females, geometric mean” value in experiment [2] was found to be 810 pg/mL. The “Growth Hormone - males, geometric mean” value in experiment [2] turned out to be 160 pg/mL. The “B, multiple linear regression of ΔGH (12 months - baseline) vs treatment group” value is reported as 0.41 in experiment [2] (setting [5]); 0.02 in experiment [2] (setting [6]); −0.37 in experiment [2] (setting [7]); −0.36 in experiment [2] (setting [8]); 0.12 in experiment [2] (setting [9]); −0.11 in experiment [2] (setting [10]). Also, in experiment [3], the “LDL-C, mean” value worked out at 3.27 mmol/L. Also, in experiment [4], the “IMTbulb, median” value was determined as 2.02. Also, the “IMTcca, median” value in experiment [4] is recorded as 0.87.

Consider `COCCc1ccc(OCC(O)CNC(C)C)cc1` (centres unmarked) [Metoprolol], for which the “Growth Hormone - females, geometric mean” value in experiment [2] is on record as 860 pg/mL. For the same compound, the “Growth Hormone - males, geometric mean” value in experiment [2] worked out at 170 pg/mL. In addition, the “B, multiple linear regression of ΔGH (12 months - baseline) vs treatment group” value in experiment [2] (setting [5]) was 0.33; in experiment [2] (setting [6]), −0.06; in experiment [2] (setting [7]) it was −0.27; in experiment [2] (setting [8]) it was −0.26; in experiment [2] (setting [9]), 0.13; in experiment [2] (setting [10]), −0.11. In addition, the “LDL-C, mean” value in experiment [3] was 4.17 mmol/L. The “IMTbulb, median” value in experiment [4] is on record as 1.89. Also, in experiment [4], the “IMTcca, median” value is reported as 0.90.
